Source: patent US10752609B2, “GSK-3 inhibitors” (priority 2016, dated 2020)

Experiments:
GSK3α = GSK3α (Homo sapiens, UniProt P49840); experiment: GSK3α kinase assay (Caliper LabChip3000 mobility shift, fluoresceinated peptide substrate)
Method: (§1) The kinase assay was performed in V-bottom 384-well plates. […] The reaction was incubated at room temperature for 20 hours and terminated by adding 45 μl of 35 mM EDTA to each sample. The reaction mixture was analyzed on the Caliper LabChip3000 (Caliper, Hopkinton, Mass.) by electrophoretic separation of the unphosphorylated substrate and phosphorylated product. […] Compounds were dissolved at 10 mM in dimethylsulfoxide (DMSO) and evaluated at eleven concentrations. IC50 values were derived by non-linear regression analysis.

GSK3β = GSK3β (Homo sapiens, UniProt P49841); experiment: GSK3β kinase assay (Caliper LabChip3000 mobility shift, fluoresceinated peptide substrate); assay type: biochemical; conditions: 250 pM enzyme, 20 uM ATP, 1.5 uM peptide, 20 hours room temperature; first value of cell GSK3β/GSK3α; read-out: GSK3β (nM), IC50
GSK3β, sequence (P49841 whole entry, species assumed): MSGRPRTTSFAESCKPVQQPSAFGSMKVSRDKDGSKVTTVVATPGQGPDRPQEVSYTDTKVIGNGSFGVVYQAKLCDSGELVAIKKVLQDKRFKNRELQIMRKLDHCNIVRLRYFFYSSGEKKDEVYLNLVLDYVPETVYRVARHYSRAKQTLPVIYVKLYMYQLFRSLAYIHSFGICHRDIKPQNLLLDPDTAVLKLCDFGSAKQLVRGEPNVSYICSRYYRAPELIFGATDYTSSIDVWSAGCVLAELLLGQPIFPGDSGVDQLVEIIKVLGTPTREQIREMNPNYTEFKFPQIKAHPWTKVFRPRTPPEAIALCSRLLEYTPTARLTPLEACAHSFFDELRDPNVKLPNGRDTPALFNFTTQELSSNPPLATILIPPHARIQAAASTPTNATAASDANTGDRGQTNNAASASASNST
Method: as §1

pTau = pTau assay (no method described); assay type: cell-based

GSK3α, sequence (P49840 whole entry, species assumed): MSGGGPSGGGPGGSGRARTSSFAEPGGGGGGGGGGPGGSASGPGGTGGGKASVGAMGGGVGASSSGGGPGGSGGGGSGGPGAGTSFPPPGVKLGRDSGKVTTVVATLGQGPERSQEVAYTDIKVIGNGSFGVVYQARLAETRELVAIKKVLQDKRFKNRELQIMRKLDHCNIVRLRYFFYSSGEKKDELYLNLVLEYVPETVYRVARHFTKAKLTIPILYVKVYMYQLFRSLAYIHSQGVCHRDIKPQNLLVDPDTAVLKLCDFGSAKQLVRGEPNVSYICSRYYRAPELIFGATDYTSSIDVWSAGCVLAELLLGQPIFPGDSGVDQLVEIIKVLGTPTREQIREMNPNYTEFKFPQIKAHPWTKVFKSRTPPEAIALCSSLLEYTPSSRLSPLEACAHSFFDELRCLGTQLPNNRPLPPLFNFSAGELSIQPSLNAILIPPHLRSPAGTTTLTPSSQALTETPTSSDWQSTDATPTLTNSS

Structure (SMILES) | IC50 (GSK3α) | IC50 (GSK3β) | IC50 (pTau)
O=C(Nc1cnccc1-c1ccc(F)cc1)c1ccnc(Nc2ccc(Cl)cc2)n1 [Example 46, 2-((4-Chlorophenyl)amino)-N-(4-(4-fluorophenyl)pyridin-3-yl)pyrimidine-4-carboxamide] | 0.44 nM | 0.5 nM | 77 nM
O=C(Nc1cnccc1-c1ccc(F)cc1)c1ccnc(Nc2ccc(C(F)(F)F)cc2)n1 [Example 47, N-(4-(4-Fluorophenyl)pyridin-3-yl)-2-((4-(trifluoromethyl)phenyl)amino)pyrimidine-4-carboxamide] | 0.7 nM | 2.1 nM | 100 nM
O=C(Nc1cnccc1-c1ccc(F)cc1)c1ccnc(Nc2ccc(OC(F)(F)F)cc2)n1 [Example 48, N-(4-(4-Fluorophenyl)pyridin-3-yl)-2-((4-(trifluoromethoxy)phenyl)amino)pyrimidine-4-carboxamide] | 1.3 nM | 1.5 nM | 170 nM
O=C(Nc1cnccc1-c1ccc(F)cc1)c1ccnc(Nc2ccc(OC(F)F)cc2)n1 [Example 49, 2-((4-(Difluoromethoxy)phenyl)amino)-N-(4-(4-fluorophenyl)pyridin-3-yl)pyrimidine-4-carboxamide] | 0.29 nM | 0.48 nM | 74 nM
O=C(Nc1cnccc1-c1ccc(F)cc1)c1ccnc(Nc2ccc(OC(F)F)nc2)n1 [Example 50, 2-((6-(Difluoromethoxy)pyridin-3-yl)amino)-N-(4-(4-fluorophenyl)pyridin-3-yl)pyrimidine-4-carboxamide] | 1.5 nM | 4 nM | 180 nM
O=C(Nc1cnccc1OCC(F)(F)F)c1ccnc(Nc2ccccc2)n1 [Example 51, 2-(Phenylamino)-N-(4-(2,2,2-trifluoroethoxy)pyridin-3-yl)pyrimidine-4-carboxamide] | 0.16 nM | 0.25 nM | 13 nM
COc1ccc(Nc2nccc(C(=O)Nc3cnccc3OCC(F)(F)F)n2)cc1 [Example 52, 2-((4-Methoxyphenyl)amino)-N-(4-(2,2,2-trifluoroethoxy)pyridin-3-yl)pyrimidine-4-carboxamide] | 0.06 nM | 0.07 nM | 6 nM
CCOc1ccc(Nc2nccc(C(=O)Nc3cnccc3OCC(F)(F)F)n2)cc1 [Example 53, 2-((4-Ethoxyphenyl)amino)-N-(4-(2,2,2-trifluoroethoxy)pyridin-3-yl)pyrimidine-4-carboxamide] | 0.22 nM | 0.35 nM | 10 nM
Cc1ccc(Nc2nccc(C(=O)Nc3cnccc3OCC(F)(F)F)n2)cc1 [Example 54, 2-(p-Tolylamino)-N-(4-(2,2,2-trifluoroethoxy)pyridin-3-yl)pyrimidine-4-carboxamide] | 0.08 nM | 0.12 nM | 5.1 nM
O=C(Nc1cnccc1OCC(F)(F)F)c1ccnc(Nc2ccc(F)cc2)n1 [Example 55, 2-((4-Fluorophenyl)amino)-N-(4-(2,2,2-trifluoroethoxy)pyridin-3-yl)pyrimidine-4-carboxamide] | 0.16 nM | 0.26 nM | 7.6 nM
O=C(Nc1cnccc1OCC(F)(F)F)c1ccnc(Nc2ccc(Cl)cc2)n1 [Example 56, 2-((4-Chlorophenyl)amino)-N-(4-(2,2,2-trifluoroethoxy)pyridin-3-yl)pyrimidine-4-carboxamide] | 0.15 nM | 0.25 nM | 5.9 nM
N#Cc1ccc(Nc2nccc(C(=O)Nc3cnccc3OCC(F)(F)F)n2)cc1 [Example 57, 2-((4-Cyanophenyl)amino)-N-(4-(2,2,2-trifluoroethoxy)pyridin-3-yl)pyrimidine-4-carboxamide] | 0.07 nM | 0.08 nM | 1.4 nM
O=C(Nc1cnccc1OCC(F)(F)F)c1ccnc(Nc2ccc(C(F)(F)F)cc2)n1 [Example 58, N-(4-(2,2,2-Trifluoroethoxy)pyridin-3-yl)-2-((4-(trifluoromethyl)phenyl)amino)pyrimidine-4-carboxamide] | 0.18 nM | 0.3 nM | 10 nM
O=C(Nc1cnccc1OCC(F)(F)F)c1ccnc(Nc2ccc(OC(F)(F)F)cc2)n1 [Example 59, N-(4-(2,2,2-Trifluoroethoxy)pyridin-3-yl)-2-((4-(trifluoromethoxy)phenyl)amino)pyrimidine-4-carboxamide] | 0.21 nM | 0.18 nM | 8.2 nM
O=C(Nc1cnccc1OCC(F)(F)F)c1ccnc(Nc2ccc(Cl)cc2F)n1 [Example 61, 2-((4-Chloro-2-fluorophenyl)amino)-N-(4-(2,2,2-trifluoroethoxy)pyridin-3-yl)pyrimidine-4-carboxamide] | 0.39 nM | 0.72 nM | 230 nM
COc1ccc(Nc2nccc(C(=O)Nc3cnccc3OCC(F)(F)F)n2)cc1F [Example 62, 2-((3-Fluoro-4-methoxyphenyl)amino)-N-(4-(2,2,2-trifluoroethoxy)pyridin-3-yl)pyrimidine-4-carboxamide] | 0.09 nM | 0.08 nM | 230 nM

Structure (SMILES) | IC50 (GSK3α) | IC50 (GSK3β) | IC50 (pTau)
O=C(Nc1cnccc1OCC(F)(F)F)c1ccnc(Nc2ccc(OC(F)F)nc2)n1 [Example 63, 2-((6-(Difluoromethoxy)pyridin-3-yl)amino)-N-(4-(2,2,2-trifluoroethoxy)pyridin-3-yl)pyrimidine-4-carboxamide] | 0.13 nM | 0.18 nM | 3 nM
O=C(Nc1cnccc1OCC(F)(F)F)c1ccnc(Nc2ccc(C(F)(F)F)nc2)n1 [Example 64, N-(4-(2,2,2-Trifluoroethoxy)pyridin-3-yl)-2-((6-(trifluoromethyl)pyridin-3-yl)amino)pyrimidine-4-carboxamide] | 0.19 nM | 0.2 nM | 8.5 nM
CC(C)OCCCNc1nccc(C(=O)Nc2cnccc2OCC(F)(F)F)n1 [Example 65, 2-((3-Isopropoxypropyl)amino)-N-(4-(2,2,2-trifluoroethoxy)pyridin-3-yl)pyrimidine-4-carboxamide] | 1.4 nM | 2 nM | 86 nM
N#Cc1ccc(Nc2nccc(C(=O)Nc3cncnc3OCC(F)(F)F)n2)cc1 [Example 66, 2-((4-Cyanophenyl)amino)-N-(4-(2,2,2-trifluoroethoxy)pyrimidin-5-yl)pyrimidine-4-carboxamide] | 0.67 nM | 1 nM | 22 nM
O=C(Nc1cncnc1OCC(F)(F)F)c1ccnc(Nc2ccc(Cl)cc2)n1 [Example 67, 2-((4-Chlorophenyl)amino)-N-(4-(2,2,2-trifluoroethoxy)pyrimidin-5-yl)pyrimidine-4-carboxamide] | 0.36 nM | 0.97 nM | 90 nM
O=C(Nc1cncnc1OCC(F)(F)F)c1ccnc(Nc2ccc(C(F)(F)F)cc2)n1 [Example 68, N-(4-(2,2,2-Trifluoroethoxy)pyrimidin-5-yl)-2-((4-(trifluoromethyl)phenyl)amino)pyrimidine-4-carboxamide] | 1.3 nM | 0.73 nM | 90 nM
O=C(Nc1cncnc1OCC(F)(F)F)c1ccnc(Nc2ccc(OC(F)(F)F)cc2)n1 [Example 69, N-(4-(2,2,2-Trifluoroethoxy)pyrimidin-5-yl)-2-((4-(trifluoromethoxy)phenyl)amino)pyrimidine-4-carboxamide] | 0.6 nM | 0.56 nM | 160 nM
O=C(Nc1cncnc1OCC(F)(F)F)c1ccnc(Nc2ccc(Cl)cc2F)n1 [Example 71, 2-((4-Chloro-2-fluorophenyl)amino)-N-(4-(2,2,2-trifluoroethoxy)pyrimidin-5-yl)pyrimidine-4-carboxamide] | 4.2 nM | 8 nM | 1000 nM
O=C(Nc1cncnc1OCC(F)(F)F)c1ccnc(Nc2cc(F)c(Cl)cc2F)n1 [Example 72, 2-((4-Chloro-2,5-difluorophenyl)amino)-N-(4-(2,2,2-trifluoroethoxy)pyrimidin-5-yl)pyrimidine-4-carboxamide] | 1.1 nM | 1.6 nM | 290 nM
O=C(Nc1cncnc1OCC(F)(F)F)c1ccnc(Nc2ccc(OC(F)F)nc2)n1 [Example 73, 2-((6-(Difluoromethoxy)pyridin-3-yl)amino)-N-(4-(2,2,2-trifluoroethoxy)pyrimidin-5-yl)pyrimidine-4-carboxamide] | 0.18 nM | 0.26 nM | 22 nM
CC(C)OCCCNc1nccc(C(=O)Nc2cncnc2OCC(F)(F)F)n1 [Example 74, 2-((3-Isopropoxypropyl)amino)-N-(4-(2,2,2-trifluoroethoxy)pyrimidin-5-yl)pyrimidine-4-carboxamide] | 4.5 nM | 5.9 nM | 890 nM
O=C(Nc1cncnc1Nc1ccccc1)c1ccnc(Nc2ccccc2)n1 [Example 75, 2-(Phenylamino)-N-(4-(phenylamino)pyrimidin-5-yl)pyrimidine-4-carboxamide] | 33 nM | 48 nM | 4500 nM
O=C(Nc1cncnc1OCC(F)(F)F)c1ccnc(Nc2ccccc2)n1 [Example 76, 2-(Phenylamino)-N-(4-(2,2,2-trifluoroethoxy)pyrimidin-5-yl)pyrimidine-4-carboxamide] | 0.56 nM | 1.1 nM | 77 nM
COc1ccc(Nc2nccc(C(=O)Nc3cncnc3OCC(F)(F)F)n2)cc1 [Example 77, 2-((4-Methoxyphenyl)amino)-N-(4-(2,2,2-trifluoroethoxy)pyrimidin-5-yl)pyrimidine-4-carboxamide] | 0.47 nM | 0.79 nM | 100 nM
COc1ccc(Nc2nccc(C(=O)Nc3cncnc3Nc3ccc(OC)cc3)n2)cc1 [Example 78, 2-Amino-N-(6-methylpyridin-3-yl)pyrimidine-4-carboxamide 2-((4-methoxyphenyl)amino)-N-(4-((4-methoxyphenyl)amino)pyrimidin-5-yl)pyrimidine-4-carboxamide] | 15 nM | 28 nM | 2900 nM
